Consider four compounds from article PMC11123956, “Nobiletin Stimulates Adrenal Hormones and Modulates the Circadian Clock in Mice” (Nutrients, 2024).

Read-outs that look alike come from different tables or passages of the source.

In assay [1] the test system is Bmal1 mRNA. The assay can be described thus: Real-time RT-PCR of Bmal1 mRNA in peripheral tissues. The class given is in vivo, mice. The settings on record: after a single treatment. As for the experimental part: (§1) Male C57BL/6J mice (7 weeks old) were purchased from Charles River Japan (Kanagawa, Japan) and used for the serum hormone assay and RT-PCR. Male ICR mice were purchased from Tokyo Laboratory Animals Science Co., Ltd. (Tokyo, Japan), and female PERIOD2::LUCIFERASE (PER2::LUC) knock-in mice (ICR background) bred at Waseda University were used for blood glucose measurements and in vivo imaging assays, respectively. The mice were all housed under conditions of controlled temperature (23 °C ± 3 °C), humidity (50% ± 20%), and lighting (lights on from 07:00 to 19:00 at Taisho Pharmaceutical Co., Ltd. or from 08:00 to 20:00 at Waseda University). In the 24 h cycle, Zeitgeber time 0 (ZT0) was designated as the time when the lights were turned on, and ZT12 was designated as the time when the lights were turned off. All the mice were given access to food and tap water ad libitum, and nobiletin (10–100 mg/kg; purchased from FUJIFILM Wako Pure Chemical Corporation, Osaka, Japan) was administered by intraperitoneal (i.p.) injection in the vehicle (10 mL/kg body weight) containing 0.5% carboxymethyl cellulose (CMC). Rolipram (PDE4 inhibitor, FUJIFILM Wako Pure Chemical Corporation) and SR1078 (RORα/γ agonist, FUJIFILM Wako Pure Chemical Corporation) were also used for the experiment at 10 mg/kg in 0.5% CMC [12]. Mice were euthanized by rapid decapitation for whole blood samples.
(§2) Figure 3 Nobiletin stimulated adrenaline and corticosterone secretion, and induced acute clock gene expression changes. (A–C) Mice received intraperitoneal injections of control (0.5% CMC) or nobiletin (10 or 100 mg/kg) at ZT3. (A) Serum corticosterone at 1 h after treatment (n = 6 in each). $$$ p < 0.001 by Tukey’s multiple comparisons test. (B) Serum corticosterone and adrenaline at 1, 2, and 4 h after treatment (n = 4 in each). # p < 0.05 vs. control at each time point by Mann–Whitney test; ** p < 0.01 vs. control at each time point by Student’s t-test. (C) Blood glucose changes after treatment (n = 9 in each). Statistics of 2-way repeated ANOVA are indicated on the graph. […]

For assay [2], the system named is PDE4B. On the set-up: method as in PMID 22451408. The settings on record: cited from earlier work.
Assay [3] relates to PDE1C. On the set-up: method as in PMID 22451408. The note with it: cited from earlier work.
Assay [4] relates to corticosterone. The settings on record: cited from earlier work.
In assay [5] the test system is CRF. More on the design: method as in PMID 9179387. The settings on record: intraperitoneal injection to mice; cited from earlier work.
The test system of assay [6] is CRF. More on the design: method as in PMID 9179387. The settings on record: isolated hypothalamic in vitro; cited from earlier work.
Assay [7] concerns serum corticosterone. As to the kind of experiment: Serum corticosterone ELISA after i.p. injection. The note with it: 10 mg/kg i.p. at ZT3, 1 h after treatment. The class given is in vivo, mice. As to the method:
(§3) Male C57BL/6J mice (7 weeks old) were purchased from Charles River Japan (Kanagawa, Japan) and used for the serum hormone assay and RT-PCR. Male ICR mice were purchased from Tokyo Laboratory Animals Science Co., Ltd. (Tokyo, Japan), and female PERIOD2::LUCIFERASE (PER2::LUC) knock-in mice (ICR background) bred at Waseda University were used for blood glucose measurements and in vivo imaging assays, respectively. The mice were all housed under conditions of controlled temperature (23 °C ± 3 °C), humidity (50% ± 20%), and lighting (lights on from 07:00 to 19:00 at Taisho Pharmaceutical Co., Ltd. or from 08:00 to 20:00 at Waseda University). In the 24 h cycle, Zeitgeber time 0 (ZT0) was designated as the time when the lights were turned on, and ZT12 was designated as the time when the lights were turned off. […]
(§4) Serum corticosterone, adrenaline, and adreno-corticotropic hormone (ACTH) levels, and corticotropin releasing factor (CRF) in the hypothalamus, were measured using enzyme-linked immunosorbent assay (ELISA). […] Blood glucose levels were measured using a Glucose PILOT kit (Aventir Biotech, LLC, Carlsbad, CA, USA). The range of blood glucose that could be precisely measured with the kit was 20–600 mg/dL. […]

Assay [8] concerns serum adrenaline. As to the kind of experiment: Serum adrenaline ELISA after i.p. injection. The settings on record: 10 mg/kg i.p. at ZT3, 1 h after treatment. The class given is in vivo, mice. As for the experimental part: as §3, §4
The test system of assay [9] is Per1 mRNA. The assay can be described thus: Real-time RT-PCR of Per1 mRNA in peripheral tissues. The note with it: stomach and lung, 2 h after 10 mg/kg i.p. The class given is in vivo, mice. As for the experimental part: as §1, §2
Assay [10] has as its system adrenaline. More on the design: method as in PMID 9245486. The settings on record: intraperitoneal, 40–200 μg/kg; cited from earlier work.
Assay [11] concerns Per2 mRNA. As to the kind of experiment: Real-time RT-PCR of Per2 mRNA in peripheral tissues. The class given is in vivo, mice. The settings on record: stomach and lung, 2 h after 10 mg/kg i.p. As to the method: as §1, with “samples. […]” for “samples.”

On to `O=C(Nc1ccc(C(O)(C(F)(F)F)C(F)(F)F)cc1)c1ccc(C(F)(F)F)cc1` [SR1078], for which, in [1], the Bmal1 expression entry is “did not change significantly”.
With `COc1cc(-c2cc(=O)c3c(O)c(OC)c(O)c(OC)c3o2)ccc1O` [Sudachitin], the “inhibition of PDE4B” value in assay [2] was “inhibit”. The “inhibition of PDE1C” value in assay [3] was “inhibit”.
As to `CCCCn1c(=O)c2c(ncn2CC(C)=O)n(CCCC)c1=O` [denbufylline], the corticosterone secretion result in [4] (via the HPA system) is given as “promotes corticosterone secretion”. Further, in assay [5], the “CRF induction in vivo” value was “produced CRF induction”. In addition, the CRF production entry in [6] is “significant production of CRF”.
Take `COc1ccc(C2CNC(=O)C2)cc1OC1CCCC1` (stereo not drawn) [rolipram]: the corticosterone secretion entry is given as “detected” in assay [7] and “increases” in [4] (intraperitoneal, 40–200 μg/kg). Further, the adrenaline secretion result in [8] is given as “detected”; in [10], “increases”. In [9], the “Per1 mRNA changes” value is listed as “detected”. Further, the serum corticosterone result in [4] (low dose, 1.6 and 8 μg/kg) is listed as “did not produce serum corticosterone increase”. Moreover, the “Per2 mRNA changes” value in assay [11] is on record as “detected”. In addition, in [6], the CRF production result was “significant production of CRF”. Besides, the Bmal1 expression entry in assay [1] is reported as “did not change”.
